Experimental data reported in patent US20230061859A1, “PYRIDO[2,3-D]PYRIMIDINE HIV-1 REVERSE TRANSCRIPTASE INHIBITOR WB3, PREPARATION METHOD AND APPLICATION THEREOF” (SHAN DONG UNIVERSITY, priority 2020, published 2023).

Assays:
[1] = test system: HIV-1 mutant strain RV5 (M230L); experiment: Anti-HIV activity, luciferase single-round infection of TZM-bl cells, RV-5; type: cell-based; conditions: Human immunodeficiency virus 1, TZM-bl, read-out: EC50 RV-5
Experimental: (§1) The target compound WB3 was evaluated its activity against HIV-1 NL4-3, HIV-1 mutant strains GH9 (K101P+K103N+V108I), RV1 (K101E+Y181V), RV2 (K101E+Y181C+G190A), RV3 (K101E+Y181C+E138K), RV4 (L100I+M230I) and RV5 (M230L). Rilpivirine (RPV) was selected as control drug.
(§2) Inhibition of HIV-1 infection was measured as reduction in luciferase gene expression after a single round of virus infection of TZM-bl cells. Briefly, 200 TCID50 of virus (NL4-3, GH9, RV-1, RV-2, RV-3, RV-4 and RV-5) was used to infect TZM-bl cells in the presence of various concentrations of compounds. Two days after infection, the culture medium was removed from each well and 100 μL of Bright Glo reagent (Promega, Luis Obispo, Calif.) was added to the cells for measurement of luminescence with a Victor 2 luminometer. […] The cytotoxicity of compounds was determined using a colorimetric 2,3-bis-(2-methoxy-4-nitro-5-sulfophenyl)-2H-tetrazolium-5-carboxanilide (XTT) assay. An amount of 100 μL of the test compounds at graded concentrations was added to equal volumes of cells (5×10^5/mL) in wells of a 96-well plate. Incubation at 37° C. for four days, then 50 μL of XTT solution (1 mg/mL) containing 0.02 μM phenazine methosulfate (PMS) was added. After four hours, the absorbance at 450 nm was measured with an ELISA reader. The CC50 values were calculated using the CalsuSyn computer program as described above.

[2] = test system: HIV-1 NL4-3 (wild-type HIV-1 viral strain); experiment: Anti-HIV activity, luciferase single-round infection of TZM-bl cells, NL4-3; type: cell-based; conditions: Human immunodeficiency virus 1, NL43, wild-type HIV-1 NL4-3
Experimental: as §1, §2

[3] = test system: HIV-1 mutant strain RV3 (K101E+Y181C+E138K); experiment: Anti-HIV activity, luciferase single-round infection of TZM-bl cells, RV-3; type: cell-based; conditions: Human immunodeficiency virus 1, TZM-bl, read-out: EC50 RV-3
Experimental: as §1, §2

Cytotoxicity, XTT assay = type: cell-based; conditions: human, mock-infected TZM-bl cells
Experimental: as §2

[4] = test system: HIV-1 mutant strain RV4 (L100I+M230I); experiment: Anti-HIV activity, luciferase single-round infection of TZM-bl cells, RV-4; type: cell-based; conditions: Human immunodeficiency virus 1, TZM-bl, read-out: EC50 RV-4
Experimental: as §1, §2

[5] = test system: HIV-1 mutant strain RV1 (K101E+Y181V); experiment: Anti-HIV activity, luciferase single-round infection of TZM-bl cells, RV-1; type: cell-based; conditions: Human immunodeficiency virus 1, TZM-bl, read-out: EC50 RV-1
Experimental: as §1, §2

[6] = test system: HIV-1 mutant strain GH9 (K101P+K103N+V108I); experiment: Anti-HIV activity, luciferase single-round infection of TZM-bl cells, GH9; type: cell-based; conditions: for EC50: Human immunodeficiency virus 1, TZM-bl, read-out: EC50 GH9
Experimental: as §1, §2

[7] = Pharmacokinetics by single iv and po administration in Wistar rats; type: in vivo
Experimental: Then, WB3 was evaluated its pharmacokinetics profiles by single iv and po administration in Wistar rats. […] These favorable PK results are sufficient to support the ability of WB3 to become an orally bioavailable NNRTIs drug candidate.
All the samples were then centrifuged at 8000 rpm for 8 min to separate plasma, which was stored at −78° C. until analysis. […] Standard curves for WB3 in blood were generated by the addition of various concentrations of WB3 together with internal standard to blank plasma.
The plasma pharmacokinetic data were analyzed by using the […] of DAS 2.0 pharmacokinetic program. The main pharmacokinetic parameters (Cmax, AUC, Tmax, T1/2, and CL) were calculated.

[8] = test system: HIV-1 mutant strain RV2 (K101E+Y181C+G190A); experiment: Anti-HIV activity, luciferase single-round infection of TZM-bl cells, RV-2; type: cell-based; conditions: Human immunodeficiency virus 1, TZM-bl, read-out: EC50 RV-2
Experimental: as §1, §2

In the case of `Cc1cc(/C=C/C#N)cc(C)c1Oc1nc(NC2CCN(Cc3ccc(S(C)(=O)=O)cc3)CC2)nc2ncccc12` [WB3], the EC50 [1] is reported as 6.15 ± 2.29 nM, the EC50 [2] is reported as 1.16 nM and the EC50 [3] is reported as greater than 106 nM. The CC50 at 4 days (Cytotoxicity, XTT assay) was greater than 44 nM, the EC50 [4] was 9.32 ± 2.46 nM and the EC50 [5] was 18.3 ± 5.8 nM. For the same molecule, the “fold potency versus rilpivirine against GH9” value ([6]; EC50 ratio to rilpivirine, GH9 strain) was “up to 200 fold”, the EC50 [6] was 1.37 nM and the CL ([7]; iv 2 mg/kg (Table 2)) was 20.6 ± 4.50 mL. The Cmax ([7]; male, rat, plasma, iv 2 mg/kg) was 1490 ng/mL and the EC50 [8] was 29 ± 10.9 nM.
Work on `Cc1cc(/C=C/C#N)cc(C)c1Nc1ccnc(Nc2ccc(C#N)cc2)n1` [RPV, Rilpivirine, reference compound] yielded an EC50 [1] of 10.4 ± 3.27 nM, an EC50 [2] of 0.96 ± 0.3 nM and an EC50 [3] of 88.1 ± 37.4 nM. The CC50 at 4 days (Cytotoxicity, XTT assay) was greater than 341 nM, the EC50 [4] was 9.82 ± 2.35 nM and the EC50 [5] was 45.6 ± 12.6 nM. It also gave an EC50 [6] greater than 273 nM and an EC50 [8] of 24.3 ± 5.73 nM.
